Source: patent US6716810B1, “Composition and method for regulation of body weight and associated conditions” (Eleanor Roosevelt Institute, priority 1998, dated 2004)
“Also recorded” adds a separate entry of the source.

What was measured:
Assay type in all cases: in vivo, mouse
[1] = test system: POMC homozygous mutant female mice; test: Daily intraperitoneal MSH analog in POMC homozygous mutant mice: body weight, food intake, coat pigmentation (Example 2); conditions: for weight loss, % of excess weight by 2 weeks: p<0.05 at day 16
Description: (§1) To test initially for the effect of peripheral melanocortins on weight change, we selected the stable agonist [Ac-Cys^4, D-Phe^7, Cys^10]α-MSH (4-13) (described in Cody et al., 1985, J. Med. Chem. 28, 583-588; incorporated herein by reference in its entirety). Briefly, [Ac-Cys^4, D-Phe^7, Cys^10]α-MSH (4-13) amide, having the cysteines connected by a disulfide bridge, was obtained from Peninsula Laboratories, CA. Lyophilized powder was dissolved in water at 1 mg/ml, which was diluted in PBS to 10 μg/mL. During the experiments, mice were maintained on a normal 12 h/12 h light/dark cycle with food and water ad libitum. Mice were fed standard laboratory rodent diet (#5001).
(§2) In order to see whether the α-MSH analog has an effect on food intake, we compared weight change and food intake in these mice for one week (see bars in FIGS. 4A and 4B) under MSH analog treatment and after MSH analog treatment was stopped (FIGS. 4C and 4D). During one week under MSH analog treatment mutant mice lost 0.5 g, while wildtype littermates gained 0.3 g; the food intake during this time was equivalent in both groups (20.7 g in wildtypes, and 22.7 g in mutants).
An effect of MSH could also be seen on coat pigmentation. […] Yellow coat pigmentation gradually reappeared after MSH treatment was terminated (data not shown).

ob/ob mutant mice [2] = test: Weight gain and food intake in ob/ob mutants treated with leptin, MSH analog or both (Example 5)
Description: Leptin deficient (ob/ob) mutants show both hyperphagia and “increased metabolic efficiency” as witnessed by their ability to gain weight even when pair-fed with normal congenic controls. To determine the effects of leptin and MSH on food intake and weight gain, four sets of ob/ob mutants were treated with leptin, an MSH analog, both together, or vehicle alone. The MSH analog [Ac-Cys^4, D-Phe^7, Cys^10]α-MSH (4-13) was purchased from Peninsula Laboratories (Belmont, Calif.). Mice were treated with daily injections of 7 micrograms of each, both or neither.

obese lep^ob/ob mice = test: Weight change in obese lep ob/ob mice treated with leptin, α-MSH analog or both (Example 4); conditions: 3 μg of each compound i.p. once daily; mice aged 2 months
Description: To assess a more general effect of peripheral melanocortin on adipocytes, another genetic form of obesity, in lep^ob/ob mice, was treated with the α-MSH analog. In this experiment, the mice received leptin or the α-MSH analog alone, and in combination.
Briefly, obese lep^ob/ob mice at age 2 months (2 per group) received daily either: (1) 3 μg of α-MSH analog (described in Examples 2 and 3 above); (2) 3 μg of recombinant mouse leptin; (3) 3 μg of α-MSH analog and 3 μg of recombinant mouse leptin in combination; or (4) saline. The compounds were delivered intraperitoneally once daily, 1-2 hours before the onset of darkness.

wildtype female mice = test: Daily intraperitoneal MSH analog in wildtype littermates: body weight, food intake (Example 2); conditions: for weight loss in wildtype littermates: 1 microgram i.p. daily, 16-day treatment
Description: as §1, §2

wildtype mice = test: Weight change and food intake under standard diet, MSH analog or high fat diet, wildtype mice (Example 3); conditions: 1 or 2 μg i.p. once daily
Description: (§3) P values were determined by ANOVA. If the major component of weight regulation through the melanocortinergic pathway was the regulation of feeding behavior, the observed changes in body weight in is POMC null mutant mice should be paralleled by a similar pattern in food uptake. This, however, was not observed (FIGS. 5B and 5D and Table 1).

ob/ob mutant mice [3] = test: Core temperature of ob/ob mutants exposed to 4° C. after MSH analog (Example 5); conditions: 7 micrograms; 5 hours without food, then 4° C. for 65 minutes; v. vehicle
Description: In 1977, the decreased ability of ob/ob mutants to maintain body temperature at 4° C. was noted. This preceded the onset of obesity in these mice. In view of the evidence that MSH regulates adipocyte metabolism, the present inventors hypothesized that the low levels of circulating MSH in leptin deficient (ob/ob) mutants was responsible for the impaired thermal regulation. To test this, ob/ob mutants were injected with 7 micrograms of MSH analog or vehicle only as described above. The mice were left without food for 5 hours and then exposed to 4° C. for 65 minutes. Their core temperatures were measured periodically by transfer to a coldroom (4° C.) where core temperatures were measured using a digital thermometer fitted with a rectal probe (Atkins Technical Inc., Gainesville, Fla.). […] As the mice had no opportunity to eat between injection of the MSH analog and the cold challenge, food intake cannot be responsible for the altered thermal regulation.

POMC null mutant mice = test: Weight change and food intake under standard diet, MSH analog or high fat diet, POMC null mutant mice (Example 3); conditions: 1 or 2 μg i.p. once daily
Description: as §3

[4] = test system: ob/ob mutant mice (C57BL/6J-Lep^ob); test: Circulating MSH levels by RIA in ob/ob mutants after leptin (Example 5); conditions: leptin 7 microgram/day i.p.; two hours after the tenth daily injection
Description: To test the inductive ability of leptin on circulating MSH levels, ob/ob mutants (ob/ob mutant mice (C57BL/6J-Lep^ob) and congenic controls were purchased from the Jackson Laboratory, Bar Harbor, Me.) were treated with leptin (7 microgram/day) or with vehicle alone (Murine recombinant leptin was kindly provided by Dr. A. F Parlow through the National Hormone and Pituitary Program (NHPP); hormones were diluted to 70 micrograms per milliliter in PBS; mice were injected intraperitoneally with 0.1 mL). Two hours after the tenth daily injection, blood samples were drawn from the retro-orbital sinus and analyzed for MSH levels by RIA following the manufacturer's instructions (Peninsula Laboratories, Belmont, Calif.).

[5] = daily injections of 7 micrograms

## [Ac-Cys^4, D-Phe^7, Cys^10]α-MSH (4-13) amide [MSH analog]
[1]; 1 microgram (~1 nmol) i.p. daily, mutant female mice, listed as MSH-agonist
  weight loss, % of excess weight by 2 weeks: 46 % of excess weight
[1]; 1 microgram (~1 nmol) i.p. daily, mutant female mice, listed as α-MSH agonist
  weight loss, % of excess weight by 2 weeks: over 40 % of excess weight
[1]; 1 microgram (~1 nmol) i.p. daily, mutant female mice, p<0.1 at day 8
  weight loss, % of excess weight within one week: 38 % of excess weight
[1]; after 16-day treatment
  time until mutant mice started to gain weight after MSH injections were stopped: about 10 days
[1]; another two weeks after onset of regain
  weight regain after MSH injections were stopped: reached close to their pretreatment weight
[1]; second week of treatment, mutant mice
  weight lost during one week under MSH analog treatment: 0.5 g
[1]; second week of treatment, mutants
  food intake during one week under MSH analog treatment: 22.7 g
[1]; third week after termination, mutant mice
  weight gained in one week after MSH analog treatment had been stopped for two weeks: 1.7 g
[1]; third week after termination, mutants
  food intake in one week after MSH analog treatment had been stopped for two weeks: 35.7 g
[1]; third week after termination, p<0.005
  excess food intake of mutants over wildtypes after treatment stop: 11.5 g
[1]; treated for two weeks
  coat pigmentation: lost their yellowish tinge
ob/ob mutant mice [2]; 7 micrograms of each, daily
  effect of MSH analog added to leptin on weight: inability of peripheral MSH analog to supplement the weight reducing effect
ob/ob mutant mice [2]; [5]
  effect on weight gain compared with effect on food intake: greater on weight gain than on food intake
  weight gain: effectively decreased weight gain; also recorded: decreases weight gain
Obese lep^ob/ob mice
  total weight change over a period of 10 days compared to untreated controls: slowed weight gain by almost half
Wildtype female mice; listed as MSH-agonist
  weight loss in wildtype littermates: no significant weight loss
Wildtype female mice; listed as α-MSH agonist
  weight loss in wildtype littermates: did not lose significant weight
Wildtype female mice; second week of treatment, wildtype littermates
  weight gained during one week under MSH analog treatment: 0.3 g
Wildtype female mice; second week of treatment, wildtypes
  food intake during one week under MSH analog treatment: 20.7 g
Wildtype female mice; third week after termination, wildtype littermates
  weight gain in one week after MSH analog treatment had been stopped for two weeks: 0.3 g
Wildtype female mice; third week after termination, wildtypes
  food intake in one week after MSH analog treatment had been stopped for two weeks: 24.2 g
Wildtype mice
  food intake under MSH analog: decreases food intake
  weight regulation under MSH analog: maintaining their body weight constant
ob/ob mutant mice [3]
  core temperature / thermal homeostasis at 4° C.: maintained their core temperature much better; also recorded: increases thermal homeostasis
POMC null mutant mice
  food intake under MSH analog: decreases food intake
  weight change under MSH analog: lose excess weight

B1: leptin: recombinant mouse leptin, product of the ob gene, provided through the National Hormone and Pituitary Program (protein, UniProt P41160 22-167, looked up)
Leptin: VPIQKVQDDTKTLIKTIVTRINDISHTQSVSAKQRVTGLDFIPGLHPILSLSKMDQTLAVYQQVLTSLPSQNVLQIANDLENLRDLLHLLAFSKSCSLPQTSGLQKPESLDGVLEASLYSTEVVALSRLQGSLQDILQQLDVSPEC
ob/ob mutant mice [2]; [5]
  weight gain: effectively decreased weight gain
Obese lep^ob/ob mice
  total weight change over a period of 10 days compared to untreated controls: little effect on preventing further weight gain
[4]
  circulating MSH levels: approached those found in normal control mice; also recorded: induces almost normal levels of circulating MSH
